In patent publication US10202360B2 (CELGENE QUANTICEL RESEARCH, INC., priority 2016, dated 2019):

These compounds were tested against CREBBP (Homo sapiens (Human), UniProt Q92793) (assay: In vitro enzyme inhibition assay - CREBBP inhibition (AlphaScreen, biotinylated H4-tetraacetyl peptide)). Conditions: Table 28; AlphaScreen, H4-tetraacetyl peptide.
Type: binding
In short: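 His-tagged CREBBP expressed in E. coli (50 nM final) incubated with biotinylated H4K5/8/12/16(Ac) peptide (20 nM final) in HEPES pH 7.3 buffer, 0.4% DMSO, 20 min at room temperature.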

Sequence of CREBBP (Q92793 1081-1197): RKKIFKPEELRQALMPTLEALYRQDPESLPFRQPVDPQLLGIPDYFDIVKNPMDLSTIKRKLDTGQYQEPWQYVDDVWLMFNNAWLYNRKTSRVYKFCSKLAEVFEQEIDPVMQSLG

Row | IC50 | SMILES
1 | < 500 nM | CCCCS(=O)(=O)Nc1cc(-c2ccc(=O)n(C)c2)nc(Oc2c(F)cccc2C2CC2)n1 [Example 240, Butane-1-sulfonic acid [2-(2-cyclopropyl-6-fluoro-phenoxy)-6-(1-methyl-6-oxo-1,6-dihydro-pyridin-3-yl)-pyrimidin-4-yl]-amide]
2 | < 500 nM | CCCC(C)S(=O)(=O)Nc1cc(-c2ccc(=O)n(C)c2)nc(Oc2c(C)cccc2F)n1 (stereo not shown) [Example 241, Pentane-2-sulfonic acid [2-(2-fluoro-6-methyl-phenoxy)-6-(1-methyl-6-oxo-1,6-dihydro-pyridin-3-yl)-pyrimidin-4-yl]-amide]
3 | < 500 nM | CCCC(C)S(=O)(=O)Nc1cc(-c2ccc(=O)n(C)c2)nc(Oc2c(F)cccc2Cl)n1 (stereo not shown) [Example 242, Pentane-2-sulfonic acid [2-(2-chloro-6-fluoro-phenoxy)-6-(1-methyl-6-oxo-1,6-dihydro-pyridin-3-yl)-pyrimidin-4-yl]-amide]
4 | < 500 nM | CCCC(C)S(=O)(=O)Nc1cc(-c2ccc(=O)n(C)c2)nc(Oc2c(C)cccc2Cl)n1 (stereo not shown) [Example 243, Pentane-2-sulfonic acid [2-(2-chloro-6-methyl-pphenoxy)-6-(1-methyl-6-oxo-1,6-dihydro-pyridin-3-yl)-pyrimidin-4-yl]-amide]
5 | < 500 nM | CCCCS(=O)(=O)Nc1cc(-c2ccc(=O)n(C)c2)nc(OC2CCCCC2)n1 [Example 244, Butane-1-sulfonic acid [2-cyclohexyloxy-6-(1-methyl-6-oxo-1,6-dihydro-pyridin-3-yl)-pyrimidin-4-yl]-amide]
6 | < 500 nM | CCCS(=O)(=O)Nc1cc(-c2ccc(=O)n(C)c2)nc(OC2CCCCC2)n1 [Example 245, Propane-1-sulfonic acid [2-cylcohexyloxy-6-(1-methyl-6-oxo-1,6-dihydro-pyridin-3-yl)-pyrimidin-4-yl]-amide]
7 | < 500 nM | CCS(=O)(=O)Nc1cc(-c2ccc(=O)n(C)c2)nc(OC2CCCCC2)n1 [Example 246, Ethanesulfonic acid [2-cylcohexyloxy-6-(1-methyl-6-oxo-1,6-dihydro-pyridin-3-yl)-pyrimidin-4-yl]-amide]
8 | < 500 nM | CC(C)S(=O)(=O)Nc1cc(-c2ccc(=O)n(C)c2)nc(OC2CCCCC2)n1 [Example 247, Propane-2-sulfonic acid [2-cylcohexyloxy-6-(1-methyl-6-oxo-1,6-dihydro-pyridin-3-yl)-pyrimidin-4-yl]-amide]
9 | < 500 nM | Cc1cccc(F)c1Oc1nc(NS(=O)(=O)CCC(C)C)cc(-c2ccc(=O)n(C)c2)n1 [Example 248, 3-Methyl-butane-1-sulfonic acid [2-(2-fluoro-6-methyl-phenoxy)-6-(1-methyl-6-oxo-1,6-dihydro-pyridin-3-yl)-pyrimidin-4-yl]-amide]
10 | < 500 nM | CCCCS(=O)(=O)Nc1cc(-c2cc(C)c(=O)n(C)c2)nc(OC2CCCCC2)n1 [Example 249, Butane-1-sulfonic acid [2-cyclohexyloxy-6-(1,5-dimethyl-6-oxo-1,6-dihydro-pyridin-3-yl)-pyrimidin-4-yl]-amide]
11 | < 500 nM | Cc1cc(-c2cc(NS(=O)(=O)C(C)C)nc(OC3CCCCC3)n2)cn(C)c1=O [Example 250, Propane-2-sulfonic acid [2-cyclohexyloxy-6-(1,5-dimethyl-6-oxo-1,6-dihydro-pyridin-3-yl)-pyrimidin-4-yl]-amide]
12 | < 500 nM | CC(C)CCS(=O)(=O)Nc1cc(-c2ccc(=O)n(C)c2)nc(Oc2c(F)cccc2Cl)n1 [Example 251, 3-Mehtyl-butane-1-sulfonic acid [2-(2-chloro-6-fluoro-phenoxy)-6-(1-methyl-6-oxo-1,6-dihydro-pyridin-3-yl)-pyrimidin-4-yl]-amide]
13 | < 500 nM | Cc1cccc(Cl)c1Oc1nc(NS(=O)(=O)CCC(C)C)cc(-c2ccc(=O)n(C)c2)n1 [Example 252, 3-Methyl-butane-1-sulfonic acid [2-(2-chloro-6-methyl-phenoxy)-6-(1-methyl-6-oxo-1,6-dihydro-pyridin-3-yl)-pyrimidin-4-yl]-amide]
